Assay results published in ChEMBL document CHEMBL5291721, “A preclinical secondary pharmacology resource illuminates target-adverse drug reaction associations of marketed drugs” (Nat Commun, 2023).

What was measured:
[1] = target: Beta-1 adrenergic receptor (Homo sapiens, UniProt P08588); assay type: functional, cell-based
[2] = target: Sodium channel protein type 5 subunit alpha (Homo sapiens, UniProt Q14524); assay type: functional, cell-based
[3] = target: T1, Neuropeptide Y receptor type 2 (Homo sapiens, UniProt P49146)
T1 sequence (P49146 whole entry): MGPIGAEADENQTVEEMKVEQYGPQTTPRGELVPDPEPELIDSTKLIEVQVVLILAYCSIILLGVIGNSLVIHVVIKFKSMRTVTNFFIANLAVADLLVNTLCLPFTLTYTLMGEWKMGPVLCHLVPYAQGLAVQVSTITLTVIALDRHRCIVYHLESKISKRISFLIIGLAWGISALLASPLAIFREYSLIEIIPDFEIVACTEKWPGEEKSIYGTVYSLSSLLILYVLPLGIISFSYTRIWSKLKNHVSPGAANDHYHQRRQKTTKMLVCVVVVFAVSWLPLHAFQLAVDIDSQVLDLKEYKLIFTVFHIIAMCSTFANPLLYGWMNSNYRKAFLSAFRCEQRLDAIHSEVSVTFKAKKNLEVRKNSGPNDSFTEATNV

[4] = target: T2, Gastric inhibitory polypeptide receptor (Homo sapiens, UniProt P48546)
T2 sequence (P48546 whole entry): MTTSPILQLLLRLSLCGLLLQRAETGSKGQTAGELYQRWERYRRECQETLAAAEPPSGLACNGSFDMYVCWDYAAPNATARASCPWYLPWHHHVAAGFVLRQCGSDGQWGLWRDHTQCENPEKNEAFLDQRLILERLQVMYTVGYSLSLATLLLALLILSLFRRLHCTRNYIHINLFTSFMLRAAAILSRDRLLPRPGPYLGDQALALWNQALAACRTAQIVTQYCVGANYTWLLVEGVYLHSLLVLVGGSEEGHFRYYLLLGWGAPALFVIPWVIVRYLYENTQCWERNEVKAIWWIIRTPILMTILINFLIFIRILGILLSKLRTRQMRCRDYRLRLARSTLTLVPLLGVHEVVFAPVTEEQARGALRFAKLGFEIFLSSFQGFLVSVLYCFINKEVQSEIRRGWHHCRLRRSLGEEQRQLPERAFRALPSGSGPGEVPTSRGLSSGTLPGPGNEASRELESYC

[5] = target: T3, Alpha-1A adrenergic receptor (Homo sapiens, UniProt P35348)
T3 sequence (P35348 whole entry): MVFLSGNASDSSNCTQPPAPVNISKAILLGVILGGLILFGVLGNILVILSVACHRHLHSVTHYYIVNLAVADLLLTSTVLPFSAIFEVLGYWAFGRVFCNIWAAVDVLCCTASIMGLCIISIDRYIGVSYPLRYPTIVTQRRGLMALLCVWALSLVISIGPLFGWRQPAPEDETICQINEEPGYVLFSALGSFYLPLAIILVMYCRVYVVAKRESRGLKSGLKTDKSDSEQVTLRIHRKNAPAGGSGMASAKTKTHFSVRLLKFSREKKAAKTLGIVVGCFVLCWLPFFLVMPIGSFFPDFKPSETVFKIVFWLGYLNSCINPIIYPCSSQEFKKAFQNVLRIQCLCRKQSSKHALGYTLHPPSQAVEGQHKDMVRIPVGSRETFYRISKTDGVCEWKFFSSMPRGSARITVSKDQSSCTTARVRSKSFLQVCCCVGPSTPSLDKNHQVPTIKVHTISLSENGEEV

[6] = target: T4, Corticotropin-releasing factor receptor 2 (Homo sapiens, UniProt Q13324)
T4 sequence (Q13324 whole entry): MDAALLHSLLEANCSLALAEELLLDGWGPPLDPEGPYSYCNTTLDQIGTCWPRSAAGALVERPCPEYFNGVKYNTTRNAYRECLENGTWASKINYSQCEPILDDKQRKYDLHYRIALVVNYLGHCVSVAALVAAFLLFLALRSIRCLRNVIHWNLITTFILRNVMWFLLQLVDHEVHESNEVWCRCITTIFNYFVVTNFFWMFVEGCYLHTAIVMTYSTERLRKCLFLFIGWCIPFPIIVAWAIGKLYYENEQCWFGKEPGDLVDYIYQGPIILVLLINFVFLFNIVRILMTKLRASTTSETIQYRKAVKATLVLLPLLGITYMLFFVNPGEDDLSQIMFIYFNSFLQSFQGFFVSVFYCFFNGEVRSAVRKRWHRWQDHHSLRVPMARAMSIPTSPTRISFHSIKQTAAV

[7] = target: T5, B1 bradykinin receptor (Homo sapiens, UniProt P46663)
T5 sequence (P46663 whole entry): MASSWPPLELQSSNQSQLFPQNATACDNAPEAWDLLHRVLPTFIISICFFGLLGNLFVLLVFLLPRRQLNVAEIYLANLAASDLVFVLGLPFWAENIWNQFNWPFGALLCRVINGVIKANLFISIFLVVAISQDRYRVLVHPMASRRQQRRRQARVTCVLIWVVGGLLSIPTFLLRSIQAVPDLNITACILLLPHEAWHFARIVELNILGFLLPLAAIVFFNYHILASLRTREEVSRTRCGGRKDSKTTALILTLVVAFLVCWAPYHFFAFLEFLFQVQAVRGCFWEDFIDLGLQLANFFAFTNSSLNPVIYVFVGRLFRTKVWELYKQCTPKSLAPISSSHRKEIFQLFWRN

[8] = target: 3',5'-cyclic-AMP phosphodiesterase 4A (Homo sapiens, UniProt P27815); assay type: functional
[9] = target: 5-hydroxytryptamine receptor 7 (Homo sapiens, UniProt P34969)
[10] = target: Estrogen receptor beta (Homo sapiens, UniProt Q92731)
[11] = target: T6, Muscarinic acetylcholine receptor M2 (Homo sapiens, UniProt P08172)
T6 sequence (P08172 whole entry): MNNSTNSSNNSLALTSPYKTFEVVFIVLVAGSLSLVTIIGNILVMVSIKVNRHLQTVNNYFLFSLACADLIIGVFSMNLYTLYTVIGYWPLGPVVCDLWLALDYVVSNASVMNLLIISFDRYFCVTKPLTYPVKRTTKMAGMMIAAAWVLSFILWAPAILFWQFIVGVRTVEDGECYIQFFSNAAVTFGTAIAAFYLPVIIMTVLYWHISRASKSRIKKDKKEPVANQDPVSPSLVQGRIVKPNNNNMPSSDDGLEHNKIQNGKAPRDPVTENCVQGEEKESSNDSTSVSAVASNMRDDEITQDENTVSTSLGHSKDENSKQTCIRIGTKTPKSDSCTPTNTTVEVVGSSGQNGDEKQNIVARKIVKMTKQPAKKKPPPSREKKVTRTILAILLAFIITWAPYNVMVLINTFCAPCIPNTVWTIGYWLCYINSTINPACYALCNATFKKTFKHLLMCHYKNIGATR

[12] = target: 5-hydroxytryptamine receptor 2B (Homo sapiens, UniProt P41595)
Also: assay procedure not described here.

Sequence of Estrogen receptor beta (Q92731 whole entry): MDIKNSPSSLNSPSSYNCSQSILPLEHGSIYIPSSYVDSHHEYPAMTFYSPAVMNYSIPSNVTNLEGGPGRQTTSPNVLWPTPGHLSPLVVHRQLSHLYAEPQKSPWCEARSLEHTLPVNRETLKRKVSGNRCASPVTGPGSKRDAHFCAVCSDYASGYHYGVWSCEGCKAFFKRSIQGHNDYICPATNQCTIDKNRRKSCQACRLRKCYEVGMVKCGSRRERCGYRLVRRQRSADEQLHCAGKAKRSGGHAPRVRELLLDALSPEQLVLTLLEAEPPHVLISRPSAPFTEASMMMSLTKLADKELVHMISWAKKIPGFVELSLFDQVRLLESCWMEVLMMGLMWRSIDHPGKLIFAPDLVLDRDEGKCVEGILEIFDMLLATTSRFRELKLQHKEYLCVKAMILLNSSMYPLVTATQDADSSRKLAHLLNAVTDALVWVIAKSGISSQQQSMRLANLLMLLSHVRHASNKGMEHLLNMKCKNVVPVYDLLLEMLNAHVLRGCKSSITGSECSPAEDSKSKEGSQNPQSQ
Sequence of Beta-1 adrenergic receptor (P08588 whole entry): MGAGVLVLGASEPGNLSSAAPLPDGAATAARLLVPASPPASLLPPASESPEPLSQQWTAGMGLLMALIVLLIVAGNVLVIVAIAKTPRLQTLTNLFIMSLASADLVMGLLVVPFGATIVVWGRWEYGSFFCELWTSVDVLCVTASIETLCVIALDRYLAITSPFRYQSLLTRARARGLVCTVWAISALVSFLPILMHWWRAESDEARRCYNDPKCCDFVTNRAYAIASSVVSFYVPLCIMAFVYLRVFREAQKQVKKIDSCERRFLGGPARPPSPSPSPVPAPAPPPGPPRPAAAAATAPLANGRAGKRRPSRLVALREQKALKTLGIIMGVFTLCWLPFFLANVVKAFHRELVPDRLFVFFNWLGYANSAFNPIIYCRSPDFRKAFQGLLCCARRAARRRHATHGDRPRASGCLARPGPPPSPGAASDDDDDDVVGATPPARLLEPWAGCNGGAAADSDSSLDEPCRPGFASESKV
Sequence of Sodium channel protein type 5 subunit alpha (Q14524 whole entry): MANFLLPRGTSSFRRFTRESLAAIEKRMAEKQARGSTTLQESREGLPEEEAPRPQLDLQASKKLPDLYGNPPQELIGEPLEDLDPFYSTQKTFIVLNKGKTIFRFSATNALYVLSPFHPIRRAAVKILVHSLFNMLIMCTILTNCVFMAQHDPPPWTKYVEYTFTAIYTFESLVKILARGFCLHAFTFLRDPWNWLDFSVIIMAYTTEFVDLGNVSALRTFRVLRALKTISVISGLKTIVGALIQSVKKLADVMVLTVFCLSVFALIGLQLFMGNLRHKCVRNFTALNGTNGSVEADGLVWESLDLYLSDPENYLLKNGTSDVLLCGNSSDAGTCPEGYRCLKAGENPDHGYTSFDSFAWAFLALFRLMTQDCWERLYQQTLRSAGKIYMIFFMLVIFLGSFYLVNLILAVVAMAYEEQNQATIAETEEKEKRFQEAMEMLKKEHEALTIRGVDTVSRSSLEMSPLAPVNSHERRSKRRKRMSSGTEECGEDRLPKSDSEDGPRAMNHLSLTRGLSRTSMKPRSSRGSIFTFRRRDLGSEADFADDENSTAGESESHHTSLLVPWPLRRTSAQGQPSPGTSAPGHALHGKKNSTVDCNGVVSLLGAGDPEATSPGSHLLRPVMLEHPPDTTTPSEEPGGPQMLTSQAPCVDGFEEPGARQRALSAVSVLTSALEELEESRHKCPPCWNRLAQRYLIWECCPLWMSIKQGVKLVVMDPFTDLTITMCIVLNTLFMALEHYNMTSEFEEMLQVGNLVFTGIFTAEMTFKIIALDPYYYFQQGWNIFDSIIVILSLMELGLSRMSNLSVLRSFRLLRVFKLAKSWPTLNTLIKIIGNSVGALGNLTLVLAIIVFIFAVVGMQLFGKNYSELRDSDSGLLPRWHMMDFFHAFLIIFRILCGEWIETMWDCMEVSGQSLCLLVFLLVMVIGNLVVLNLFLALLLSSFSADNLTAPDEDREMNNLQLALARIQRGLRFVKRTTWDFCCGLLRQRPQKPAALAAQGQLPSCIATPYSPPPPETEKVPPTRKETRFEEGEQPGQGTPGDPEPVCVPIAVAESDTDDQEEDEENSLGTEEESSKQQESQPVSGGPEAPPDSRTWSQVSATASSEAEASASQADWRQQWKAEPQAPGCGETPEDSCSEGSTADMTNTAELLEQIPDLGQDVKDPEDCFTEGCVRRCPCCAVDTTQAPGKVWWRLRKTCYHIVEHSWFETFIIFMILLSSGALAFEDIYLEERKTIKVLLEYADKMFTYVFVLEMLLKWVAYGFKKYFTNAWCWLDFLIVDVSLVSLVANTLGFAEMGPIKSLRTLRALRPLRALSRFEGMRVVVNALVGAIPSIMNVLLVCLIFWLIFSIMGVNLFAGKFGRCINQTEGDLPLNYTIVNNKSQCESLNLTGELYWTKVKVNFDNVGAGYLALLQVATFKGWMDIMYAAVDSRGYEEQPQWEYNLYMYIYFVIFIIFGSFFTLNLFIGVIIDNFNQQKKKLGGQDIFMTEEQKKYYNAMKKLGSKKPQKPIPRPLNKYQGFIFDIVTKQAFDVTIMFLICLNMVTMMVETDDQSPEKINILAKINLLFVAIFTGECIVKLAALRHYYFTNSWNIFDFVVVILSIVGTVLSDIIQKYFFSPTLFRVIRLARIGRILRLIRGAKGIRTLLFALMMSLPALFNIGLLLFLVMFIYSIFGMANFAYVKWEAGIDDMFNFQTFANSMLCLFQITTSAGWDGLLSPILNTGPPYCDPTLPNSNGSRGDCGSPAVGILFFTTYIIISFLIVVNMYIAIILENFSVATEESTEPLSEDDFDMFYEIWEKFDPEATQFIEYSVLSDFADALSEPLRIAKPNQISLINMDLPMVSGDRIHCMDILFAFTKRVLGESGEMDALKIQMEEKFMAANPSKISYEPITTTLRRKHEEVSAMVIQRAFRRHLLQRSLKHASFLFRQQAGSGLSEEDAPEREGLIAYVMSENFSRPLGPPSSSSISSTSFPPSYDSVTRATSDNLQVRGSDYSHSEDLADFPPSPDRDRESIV
Sequence of 5-hydroxytryptamine receptor 2B (P41595 whole entry): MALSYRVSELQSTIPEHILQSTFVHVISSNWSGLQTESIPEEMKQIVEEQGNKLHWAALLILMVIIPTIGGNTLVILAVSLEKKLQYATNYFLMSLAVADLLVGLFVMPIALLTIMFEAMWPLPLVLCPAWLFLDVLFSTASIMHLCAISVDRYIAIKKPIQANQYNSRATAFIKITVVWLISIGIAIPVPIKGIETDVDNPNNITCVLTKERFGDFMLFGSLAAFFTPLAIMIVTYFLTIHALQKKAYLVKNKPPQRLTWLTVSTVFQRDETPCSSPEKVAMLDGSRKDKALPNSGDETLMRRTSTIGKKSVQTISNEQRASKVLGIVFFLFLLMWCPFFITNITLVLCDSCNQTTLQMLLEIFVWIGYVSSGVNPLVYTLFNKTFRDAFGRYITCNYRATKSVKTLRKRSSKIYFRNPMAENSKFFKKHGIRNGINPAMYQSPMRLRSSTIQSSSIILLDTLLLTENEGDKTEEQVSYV
Sequence of 3',5'-cyclic-AMP phosphodiesterase 4A (P27815 whole entry): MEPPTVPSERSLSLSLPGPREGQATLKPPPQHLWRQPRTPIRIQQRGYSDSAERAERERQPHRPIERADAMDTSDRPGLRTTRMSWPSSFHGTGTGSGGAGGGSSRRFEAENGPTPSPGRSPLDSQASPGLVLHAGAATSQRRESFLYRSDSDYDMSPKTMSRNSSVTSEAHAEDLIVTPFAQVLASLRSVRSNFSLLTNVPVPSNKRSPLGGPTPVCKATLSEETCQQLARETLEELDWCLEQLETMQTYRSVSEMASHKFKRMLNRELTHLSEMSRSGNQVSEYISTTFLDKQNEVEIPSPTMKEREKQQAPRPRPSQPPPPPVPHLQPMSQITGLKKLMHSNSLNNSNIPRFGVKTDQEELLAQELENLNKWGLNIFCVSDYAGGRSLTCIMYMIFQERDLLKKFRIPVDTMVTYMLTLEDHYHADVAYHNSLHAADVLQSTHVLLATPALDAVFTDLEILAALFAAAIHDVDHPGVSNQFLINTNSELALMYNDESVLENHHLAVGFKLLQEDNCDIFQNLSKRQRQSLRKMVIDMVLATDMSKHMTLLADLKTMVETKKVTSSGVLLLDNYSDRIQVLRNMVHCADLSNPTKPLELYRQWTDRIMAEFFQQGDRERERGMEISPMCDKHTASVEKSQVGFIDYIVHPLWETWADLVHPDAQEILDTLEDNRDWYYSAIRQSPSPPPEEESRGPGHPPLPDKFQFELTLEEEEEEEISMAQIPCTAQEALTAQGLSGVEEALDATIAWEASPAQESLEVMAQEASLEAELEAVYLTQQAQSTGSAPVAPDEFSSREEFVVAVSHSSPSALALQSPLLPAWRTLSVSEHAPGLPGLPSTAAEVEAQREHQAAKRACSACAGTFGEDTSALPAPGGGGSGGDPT
Sequence of 5-hydroxytryptamine receptor 7 (P34969 whole entry): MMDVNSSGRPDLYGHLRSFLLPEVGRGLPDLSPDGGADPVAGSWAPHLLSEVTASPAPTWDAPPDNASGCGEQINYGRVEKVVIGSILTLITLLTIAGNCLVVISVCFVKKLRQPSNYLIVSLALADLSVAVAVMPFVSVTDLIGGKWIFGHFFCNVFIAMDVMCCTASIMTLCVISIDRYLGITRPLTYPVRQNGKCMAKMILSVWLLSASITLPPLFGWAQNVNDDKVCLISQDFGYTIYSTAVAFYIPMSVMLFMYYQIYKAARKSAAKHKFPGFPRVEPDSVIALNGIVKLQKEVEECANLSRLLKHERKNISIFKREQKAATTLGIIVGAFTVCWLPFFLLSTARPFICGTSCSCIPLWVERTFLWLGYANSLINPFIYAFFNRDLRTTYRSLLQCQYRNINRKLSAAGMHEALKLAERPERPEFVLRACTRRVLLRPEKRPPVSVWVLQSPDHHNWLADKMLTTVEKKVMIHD

| SMILES | AC50 [1] [µM] | AC50 [2] [µM] | AC50 [3] [µM] | AC50 [4] [µM] | AC50 [6] [µM] | AC50 [7] [µM] | AC50 [10] [µM] | also measured |
| --- | --- | --- | --- | --- | --- | --- | --- | --- |
| N#Cc1ccccc1-c1cc(-c2ccccn2)cn(-c2ccccc2)c1=O | > 30 | > 30 |  |  |  |  |  |  |
| N=C(N)NCCCCCCC(=O)NC(O)C(=O)NCCCCNCCCN (stereo not given) | > 30 |  |  |  |  |  |  |  |
| NCCCC(O)(P(=O)(O)O)P(=O)(O)O [ALENDRONIC ACID] |  | > 30 | > 30 | > 30 | > 30 | > 30 | > 30 | AC50 [5]: > 10 µM; AC50 [8]: > 30 µM; AC50 [9]: > 10 µM |
| O=C(CCCN1CCC(n2c(O)nc3ccccc32)CC1)c1ccc(F)cc1 [BENPERIDOL] | > 30 |  |  |  |  |  |  |  |
| CCCC(C)(COC(N)=O)COC(=O)NC(C)C (stereo not given) [CARISOPRODOL] |  |  | > 30 | > 30 | > 30 | > 30 |  | AC50 [11]: > 10 µM; AC50 [5]: > 10 µM; AC50 [12]: > 10 µM |
| COCCOC(=O)C1=C(C)NC(C)=C(C(=O)OC/C=C/c2ccccc2)C1c1cccc([N+](=O)[O-])c1 (stereo not given) [CILNIDIPINE] |  | > 50 |  |  |  |  |  |  |
| N[C@H](Cc1cc(I)c(Oc2cc(I)c(O)c(I)c2)c(I)c1)C(=O)O [DEXTROTHYROXINE] |  |  | > 30 | > 30 | > 30 | > 30 | > 30 | AC50 [11]: > 10 µM; AC50 [12]: > 10 µM |
| COC(=O)N[C@@H](C)CNc1nccc(-c2cn(C(C)C)nc2-c2cc(Cl)cc(NS(C)(=O)=O)c2F)n1 [ENCORAFENIB] |  | > 30 |  |  |  |  |  |  |
| CCCN(CC)C(CC)C(=O)Nc1c(C)cccc1C (stereo not given) [ETIDOCAINE] |  | 28 |  |  |  |  |  |  |
| CC(=O)OCC(CCn1cnc2cnc(N)nc21)COC(C)=O [FAMCICLOVIR] |  |  | > 30 | > 30 | > 30 | > 30 | > 30 | AC50 [11]: > 10 µM; AC50 [5]: > 10 µM; AC50 [12]: > 10 µM |
| O=C(O)c1ccccc1Nc1cccc(C(F)(F)F)c1 [FLUFENAMIC ACID] |  |  | > 30 | > 30 | > 30 | > 30 | > 30 |  |
| C#C[C@]1(O)CC[C@H]2[C@@H]3CCC4=CC(=O)CCC4=C3C=C[C@@]21CC [GESTRINONE] | > 30 |  |  |  |  |  |  |  |
| CCCCCCOC(=O)CCC(=O)CN [HEXAMINOLEVULINATE] | > 30 |  |  |  |  |  |  |  |
